This note sets out measurements from patent US20080214527A1, “Hiv Integrase Inhibitors” (priority 2005, published 2008).

pEC50, pIC50: −log10 of the molar value.

The target in one data set is HIV integrase (Human immunodeficiency virus type 1 group M subtype B, UniProt P04585). Nature of the data set: Integrase inhibition assay (substrate DNA/target DNA microtiter plate, OD 405 nm). The class given is biochemical. On the procedure:
The inhibitory activities of the present compounds against integrase were determined by the assay described below.
A substrate DNA solution (2 pmol/μl) and a target DNA solution (5 pmol/μl) were prepared by the same method as that described in Experimental Example 1 of WO 2004/024693. The DNA solutions were heated and then slowly cooled so that they were annealed with each complement. Each sequence of the substrate DNA and the target DNA is the same as described in the Experimental Example.
Streptavidin, obtained from Vector Laboratories, was dissolved in 0.1 M carbonate buffer (composition: 90 mM Na2CO3, 10 mM NaHCO3) at a concentration of 40 μg/ml. After coating each well of microtiter plates (obtained from NUNC) with 50 μl of the above solution at 4° C. over night, each well was washed twice with PBS (composition: […], 0.27 mM KCl, 0.43 mM Na2HPO4, 0.14 mM KH2PO4) and blocked with 300 μl of 1% skim milk in PBS for 30 min. Additionally, each well was washed twice with PBS and added with 50 μl of the substrate DNA solution (2 pmol/μl). The microtiter plates were kept at room temperature for 30 min. Then, each well was washed twice with PBS and once with H2O.
Subsequently, to the each well prepared above were added 51 μl of the reaction buffer prepared from 12 μl of the buffer (composition: 150 mM MOPS (pH 7.2), 75 mM MnCl2, 50 mM 2-mercaptoethanol, 25% glycerol, 500 μg/ml bovine serum albumin-fraction V) and 39 μl of the distilled water. Additionally, 9 μl of an integrase solution (30 pmol) was added thereto and the mixture was mixed well. To the well of negative control (NC) was added 9 μl of the integrase dilution buffer (composition: 20 mM MOPS (pH7.2), 400 mM potassium glutamate, 1 mM EDTA, 0.1% NP-40, 20% glycerol, 1 mM DTT, 4 M urea).
The microtiter plates were incubated at 30° C. for 1 hour. The reaction solution was removed and each well was washed three times with 250 μl of the wash buffer (composition: 150 mM MOPS (pH 7.2), 50 mM 2-mercaptoethanol, 25% glycerol, 500 μg/ml bovine serum albumin-fraction V).
Subsequently, to each well prepared above were added 53 μl of the reaction buffer prepared from 12 μl of the buffer (composition: 150 mM MOPS (pH 7.2), 75 mM MgCl2, 50 mM 2-mercaptoethanol, 25% glycerol, 500 μg/ml bovine serum albumin-fraction V) and 41 μl of the distilled water. Additionally, 6 μl of either a test compound in DMSO or DMSO for positive control (PC) was mixed well. After the microtiter plates were incubated at 30° C. for 30 minutes, 1 μl of target DNA (5 pmol/μl) was added to each well, and the reaction mixture was mixed well.
The microtiter plates were incubated at 30° C. for 10 minutes. The reaction solution was removed and each well was washed twice with PBS. Subsequently, each well of the microtiter plates was filled with 100 μl of anti-digoxigenin antibody labeled with alkaline phosphatase (Sheep Fab fragment: obtained from Boehringer) and incubated at 30° C. for 1 hour. Then, each well was washed twice with 0.05% Tween20 in PBS and once with PBS. Next, 150 μl of the Alkaline phosphatase reaction buffer (composition: 10 mM p-Nitrophenylphosphate (obtained from Vector Laboratories), 5 mM MgCl2, 100 mM NaCl, 100 mM Tris-HCl (pH 9.5)) was added to each well. The microtiter plates were incubated at 30° C. for 2 hours and the reaction was terminated by the addition of 50 μl of 1 N NaOH solution. The optical density (OD) at 405 nm of each well was measured and the percent inhibition was determined by the following expression.
The percent inhibition (%)=100[1−{(C abs.−NC abs.)/(PC abs.−NC abs.)}]
When the percent inhibition (%) is X % at a concentration of ×μg/ml and the percent inhibition (%) is Y % at a concentration of y μg/ml, one of which is more than 50% and the other is less than 50%, IC50 can be determined by the following expression.
IC50(μg/ml)=x−{(X−50)(x−y)/(X−Y)}

The subject of data set [1] is HIV-1 (IIIB strain) in MT-4 cells. Nature of the data set: MT4 assay: inhibition of virus-induced CPE in MT-4 cells (MTT method). The class given is cell-based. As to conditions: Human immunodeficiency virus 1, MT4, 96 h, 4-day incubation, read-out: anti-HIV activity EC50. On the procedure:
MT-4 cells (human T-cell line established by HTLV-I-induced transformation) were cultured in RPMI1640 medium supplemented with 10% fetal calf serum and kanamycin ([…]) in 5% CO2, humidified incubator at 37° C. The stock of HIV-1 was produced as follows. Molt-4 cells persistently infected with HIV-1 (IIIB strain) were cultured for 3 days and culture supernatant was collected. After removal of cells by centrifugation, the supernatant was passed through membrane filter ([…]) and stored as cell-free culture supernatant at −80° C. The infectivity of the stock virus was measured by MTT assay.
Anti-HIV activity in vitro of test compounds was assayed by inhibition of virus-induced CPE in MT-4 cells. MT-4 cells were suspended in culture medium at 2.5×10^5 cells/ml. The cell suspension ([…]) was added to each well of a 96 well flat-bottom microtiter plate containing serial 2-fold dilution of test compounds ([…]). HIV-1 ([…]) was added to each well (4-10 TCID50/well). After 4-day incubation at 37° C., the viability of MT-4 cells was determined by the MTT method using 3-(4,5-dimethylthiazol-2-yl)-2,5-diphenyltetrazolium bromide.
The absorbance (OD) of each well was measured at two wavelengths (560 and 690 nm). All data represent the average values of three wells. The concentration (conc.) achieving 50% protection of HIV replication (EC50) were calculated.
(In general: Tetrazolium dyes change colour on reduction, which living cells bring about.)

Take `Cn1c(=O)c(C(=O)NCCO)c(O)c2ncc(Cc3ccc(F)cc3COC(N)=O)cc21`: the melting point (commonly the temperature, or range, at which the solid turns liquid) lay in the range of 238 to 240 °C.
Turning to `CCNC(=O)OCc1cc(F)ccc1Cc1cnc2c(O)c(C(=O)NCCO)c(=O)n(C)c2c1`, the melting point lay in the range of 180 to 182 °C.
Compound `CCNC(=O)OCc1cc(F)ccc1Cc1cnc2c(O)c(C(=O)NCCOC)c(=O)n(C)c2c1` gave a melting point of 157 to 159 °C.
Regarding `Cn1c(=O)c(C(=O)NCCO)c(O)c2ncc(Cc3ccc(F)cc3OCCN3CCOCC3)cc21` [Example 9, 7-[4-Fluoro-2-(2-morpholin-4-yl-ethoxy)-benzyl]-4-hydroxy-1-methyl-2-oxo-1,2-dihydro-[1,5]naphthyridine-3-carboxylic acid(2-hydroxy-ethyl)-amide], the melting point is 161 to 162 °C. In addition, the negative-log IC50 (pIC50) – broadly, the negative decadic logarithm of the IC50, by convention in mol/L – on HIV integrase is more than 7.00. Further, in data set [1], the negative-log EC50 (pEC50) (commonly the EC50 on a negative log10 scale, so that one unit is a factor of ten) is 7.00 to 9.00.
`COCC#Cc1cc(F)ccc1Cc1cnc2c(O)c(C(=O)NCCO)c(=O)n(C)c2c1` [Example 13, 7-[4-Fluoro-2-(3-methoxy-prop-1-ynyl)-benzyl]-4-hydroxy-1-methyl-2-oxo-1,2-dihydro-[1,5]naphthyridine-3-carboxylic acid(2-hydroxy-ethyl)-amide]: the pIC50 on HIV integrase was more than 7.00. In addition, in data set [1], the negative-log EC50 (pEC50) is 7.00 to 9.00.
In the case of `COCC#Cc1cc(F)ccc1Cc1cnc2c(O)c(C(=O)NCCOC)c(=O)n(C)c2c1` [Example 15, 7-[4-Fluoro-2-(3-methoxy-prop-1-ynyl)-benzyl]-4-hydroxy-1-methyl-2-oxo-1,2-dihydro-[1,5]naphthyridine-3-carboxylic acid(2-methoxy-ethyl)-amide], the melting point lay in the range of 179 to 180 °C. This compound also had a pIC50 against HIV integrase of more than 7.00. Besides, the pEC50 in data set [1] is 7.00 to 9.00.
In the same order, the values of `CC(=O)c1cc(F)ccc1Cc1cnc2c(O)c(C(=O)NCCO)c(=O)n(C)c2c1` [Example 17, 7-(2-Acetyl-4-fluoro-benzyl)-4-hydroxy-1-methyl-2-oxo-1,2-dihydro-[1,5]naphthyridine-3-carboxylic acid(2-hydroxy-ethyl)-amide] are 212 to 215 °C, more than 7.00 and 7.00 to 9.00.
`COCCNC(=O)c1c(O)c2ncc(Cc3ccc(F)cc3COC(N)=O)cc2n(C)c1=O` [Example 22, Carbamic acid 5-fluoro-2-[8-hydroxy-7-(2-methoxy-ethylcarbamoyl)-5-methyl-6-oxo-5,6-dihydro-[1,5]naphthyridin-3-ylmethyl]-benzyl ester] returned a melting point of 180 to 183 °C. The negative logarithm of the IC50 (pIC50) against HIV integrase was more than 7.00. Also, the negative logarithm of the EC50 (pEC50) in data set [1] is 7.00 to 9.00.
Turning to `COCc1cc(F)ccc1Cc1cnc2c(O)c(C(=O)NCCO)c(=O)n(C)c2c1` [Example 25, 7-(4-Fluoro-2-methoxymethyl-benzyl)-4-hydroxy-1-methyl-2-oxo-1,2-dihydro-[1,5]naphthyridine-3-carboxylic acid(2-hydroxy-ethyl)-amide], the pIC50 against HIV integrase is more than 7.00. Also, in data set [1], the negative-log EC50 (pEC50) is 7.00 to 9.00.
In the same order, the values of `Cn1c(=O)c(C(=O)NCCO)c(O)c2ncc(Cc3ccc(F)cc3CN3CCCCS3(=O)=O)cc21` [Example 33, 7-[2-(1,1-Dioxo-1lambda*6*-[1,2]thiazinan-2-ylmethyl)-4-fluoro-benzyl]-4-hydroxy-1-methyl-2-oxo-1,2-dihydro-[1,5]naphthyridine-3-carboxylic acid(2-hydroxy-ethyl)-amide] are more than 7.00 and 7.00 to 9.00.
Taken in the same sequence, the figures for `CN(Cc1cc(F)ccc1Cc1cnc2c(O)c(C(=O)NCCO)c(=O)n(C)c2c1)S(C)(=O)=O` [Example 72, 7-{4-Fluoro-2-[(methanesulfonyl-methyl-amino)-methyl]-benzyl}-4-hydroxy-1-methyl-2-oxo-1,2-dihydro-[1,5]naphthyridine-3-carboxylic acid(2-hydroxy-ethyl)-amide] were more than 7.00 and 7.00 to 9.00.
